Laboratory results from patent publication US7754654B2, “Substituted spirocyclic ketoenols” (Bayer CropScience AG, priority 2002, dated 2010).
Where “and” joins values, the source holds several entries; their conditions need not be identical. Equal values may be shown once.

Columns and labels:
Format in all cases: in vivo
[1] = system: peach aphid (Myzus persicae); test: Myzus test (cabbage leaf dip)
Experimental: To produce a suitable preparation of active compound, 1 part by weight of active compound is mixed with the stated amounts of solvent and emulsifier, and the concentrate is diluted with emulsifier-containing water to the desired concentration. Cabbage leaves (Brassica oleracea) which are heavily infested by the peach aphid (Myzus persicae) are treated by being dipped into the preparation of active compound of the desired concentration. After the desired period of time, the kill in % is determined. 100% means that all aphids have been killed; 0% means that none of the aphids have been killed.

[2] = system: caterpillars of the army worm (Spodoptera frugiperda); test: Spodoptera frugiperda test (cabbage leaf dip)
Experimental: (§1) To produce a suitable preparation of active compound, 1 part by weight of active compound is mixed with the stated amounts of solvent and emulsifier, and the concentrate is diluted with emulsifier-containing water to the desired concentration. Cabbage leaves (Brassica oleracea) are treated by being dipped into the preparation of active compound of the desired concentration and are populated with caterpillars of the army worm (Spodoptera frugiperda) while the leaves are still moist. After the desired period of time, the kill in % is determined. 100% means that all caterpillars have been killed; 0% means that none of the caterpillars have been killed.

[3] = system: Amaranthus; test: Pre-emergence test; settings: after three weeks
Experimental: (§2) To produce a suitable preparation of active compound, 1 part by weight of active compound is mixed with the stated amount of solvent, the stated amount of emulsifier is added and the concentrate is diluted with water to the desired concentration. Seeds of the test plants are sown in normal soil. After about 24 hours, the soil is sprayed with the preparation of active compound such that the particular amounts of active compound desired are applied per unit area. The concentration of the spray liquor is chosen such that the particular amounts of active compound desired are applied in 1000 l of water/ha. After three weeks, the degree of damage to the plants is rated in % damage in comparison to the development of the untreated control. The figures denote: • 0%=no effect (like untreated control) • 100%=total destruction

[4] = system: larvae of the mustard beetle (Phaedon cochleariae); test: Phaedon larvae test (cabbage leaf dip); settings: 1000 ppm
Experimental: as §1, with “with larvae” for “with caterpillars”, “the mustard beetle (Phaedon cochleariae)” for “the army worm (Spodoptera frugiperda)”, “all beetle larvae” for “all caterpillars”, “the beetle larvae” for “the caterpillars”

[5] = system: Meloidogyne incognita; test: Meloidogyne test (gall formation on lettuce roots); settings: 20 ppm; nematicidal action by gall formation, 100% = no galls
Experimental: To produce a suitable preparation of active compound, 1 part by weight of active compound is mixed with the stated amounts of solvent and emulsifier, and the concentrate is diluted with water to the desired concentration. Containers are filled with sand, solution of active compound, Meloidogyne incognita egg/larvae suspension and lettuce seeds. The lettuce seeds germinate and the plants develop. On the roots, galls are formed. After the desired period of time, the nematicidal action is determined in % by the gall formation. 100% means that no galls have been found; 0% means that the number of galls on the treated plants corresponds to that of the untreated control.

[6] = system: Abutilon; test: Post-emergence test; settings: 250 g of ai/ha, after three weeks
Experimental: as §2, with “Test plants” for “Seeds”, “a height of 5-15 cm” for “the test plants”, “are” for “are sown in normal soil. After about 24 hours, the soil is”

[7] = system: Amaranthus; test: Post-emergence test; settings: 250 g of ai/ha, after three weeks
Experimental: as §2, with “Test plants” for “Seeds”, “a height of 5-15 cm” for “the test plants”, “are” for “are sown in normal soil. After about 24 hours, the soil is”

[8] = system: Avena fatua; test: Post-emergence test; settings: 250 g of ai/ha, after three weeks
Experimental: as §2, with “Test plants” for “Seeds”, “a height of 5-15 cm” for “the test plants”, “are” for “are sown in normal soil. After about 24 hours, the soil is”

[9] = system: Setaria; test: Post-emergence test; settings: 250 g of ai/ha, after three weeks
Experimental: as §2, with “Test plants” for “Seeds”, “a height of 5-15 cm” for “the test plants”, “are” for “are sown in normal soil. After about 24 hours, the soil is”

[10] = system: Sinapis; test: Post-emergence test; settings: 250 g of ai/ha, after three weeks
Experimental: as §2, with “Test plants” for “Seeds”, “a height of 5-15 cm” for “the test plants”, “are” for “are sown in normal soil. After about 24 hours, the soil is”

[11] = system: Sugar beet; test: Post-emergence test; settings: 250 g of ai/ha, after three weeks
Experimental: as §2, with “Test plants” for “Seeds”, “a height of 5-15 cm” for “the test plants”, “are” for “are sown in normal soil. After about 24 hours, the soil is”

[12] = system: Digitaria; test: Pre-emergence test; settings: 125 g of ai/ha, after three weeks
Experimental: as §2

[13] = system: Eriochloa; test: Pre-emergence test; settings: 125 g of ai/ha, after three weeks
Experimental: as §2

[14] = system: Ipomoea; test: Pre-emergence test; settings: 125 g of ai/ha, after three weeks
Experimental: as §2

[15] = system: Lolium; test: Pre-emergence test; settings: 125 g of ai/ha, after three weeks
Experimental: as §2

[16] = system: Maize; test: Pre-emergence test; settings: 125 g of ai/ha, after three weeks
Experimental: as §2

[17] = system: Setaria; test: Pre-emergence test; settings: after three weeks
Experimental: as §2

[18] = system: Alopecurus; test: Pre-emergence test; settings: after three weeks
Experimental: as §2

[19] = system: Alopecurus; test: Post-emergence test; settings: 250 g of ai/ha, after three weeks
Experimental: as §2, with “Test plants” for “Seeds”, “a height of 5-15 cm” for “the test plants”, “are” for “are sown in normal soil. After about 24 hours, the soil is”

[20] = system: greenhouse red spider mite (Tetranychus urticae); test: Tetranychus test (OP-resistant/dip treatment); settings: 100 ppm; bean plants dipped
Experimental: To produce a suitable preparation of active compound, 1 part by weight of active compound is mixed with the stated amounts of solvent and emulsifier, and the concentrate is diluted with emulsifier-containing water to the desired concentration. Bean plants (Phaseolus vulgaris) which are heavily infested by all stages of the greenhouse red spider mite (Tetranychus urticae) are dipped into a preparation of active compound of the desired concentration. After the desired period of time, the effect in % is determined. 100% means that all spider mites have been killed; 0% means that none of the spider mites have been killed.

[21] = system: Echinochloa; test: Pre-emergence test; settings: 2000 g of ai/ha, after three weeks
Experimental: as §2

[22] = system: Sinapis; test: Pre-emergence test; settings: after three weeks
Experimental: as §2

[23] = system: Avena fatua; test: Pre-emergence test; settings: 125 g of ai/ha, after three weeks
Experimental: as §2

[24] = system: larva (L3) of the army worm (Spodoptera frugiperda); test: Spodoptera frugiperda test/synthetic feed; settings: 1000 ppm; synthetic feed
Experimental: as §1, with “A stated amount of” for “Cabbage leaves (Brassica oleracea) are treated by being dipped into”, “is pipetted onto a standardized amount of synthetic feed. In 6 replications, in each case one larva (L3)” for “and are populated with caterpillars”, “is placed onto” for “while”, “feed.” for “leaves are still moist.”, “animals” for “caterpillars”

[25] = system: Botrytis cinerea; test: Botrytis test (bean)/protective; settings: 500 g/ha, protective, 2 days after inoculation
Experimental: To produce a suitable preparation of active compound, 1 part by weight of active compound is mixed with the stated amounts of solvent and emulsifier, and the concentrate is diluted with water to the desired concentration. To test for protective activity, young plants are sprayed with the preparation of active compound at the stated application rate. After the spray coating has dried on, 2 small pieces of agar colonized by Botrytis cinerea are placed onto each leaf. The inoculated plants are placed in a dark chamber at about 20° C. and 100% relative atmospheric humidity. 2 days after the inoculation, the size of the infested areas of the leaves is evaluated. 0% means an efficacy which corresponds to that of the control, whereas an efficacy of 100% means that no infection is observed.

COCCOC1CCC2(CC1)NC(=O)C(c1cc(C)ccc1C)=C2O (single isomer, unassigned) [Ex. I-1-a-5]
Kill rate in % after 6d ([1]; 1000 ppm): 98%
Kill rate in % after 7d ([2]; 1000 ppm): 100%

C=CCOC1CCC2(CC1)NC(=O)C(c1c(C)cc(Cl)cc1Cl)=C2O (single isomer, unassigned) [Ex. I-1-a-12]
Kill rate in % after 7d ([2]; 500 ppm): 100%
% damage ([3]; 2000 g of ai/ha): 90%

Cc1ccc(C)c(C2=C(O)C3(CCC(OCC4CCCO4)CC3)NC2=O)c1 (single isomer, unassigned) [Ex. I-1-a-9]
Kill rate in % after 7d [4]: 100%

Cc1cc(C)c(C2=C(O)C3(CCC(OCC4CCCO4)CC3)NC2=O)c(C)c1C (single isomer, unassigned) [Ex. I-1-a-6]
Kill rate in % after 7d [4]: 100%

Cc1cc(C)c(C2=C(O)C3(CCC(OCc4ccc(Cl)cc4)CC3)NC2=O)c(C)c1C (single isomer, unassigned) [Ex. I-1-a-26]
Effect in % after 14d [5]: 100%
Kill rate in % after 7d [4]: 100%

Cc1cc(C)c(C2=C(O)C3(CCC(OCc4cccc(Cl)c4)CC3)NC2=O)c(C)c1 (single isomer, unassigned) [Ex. I-1-a-23]
% damage [6]: 80%
% damage [7]: 90%
% damage [8]: 80%
% damage [9]: 95%
% damage [10]: 90%
% damage [11]: 0%
% damage [12]: 100%
% damage [13]: 99%
% damage [14]: 80%
% damage [15]: 80%
% damage [16]: 0%
% damage ([17]; 125 g of ai/ha): 95%

Cc1ccc(C)c(C2=C(O)C3(CCC(OCc4ccccc4Cl)CC3)NC2=O)c1 (single isomer, unassigned) [Ex. I-1-a-21]
Kill rate in % after 7d [4]: 100%

COCCOC1CCC2(CC1)NC(=O)C(c1c(C)cc(C)cc1C)=C2O (single isomer, unassigned) [Ex. I-1-a-4]
Kill rate in % after 6d ([1]; 1000 ppm): 90%
Kill rate in % after 7d ([2]; 1000 ppm): 100%
% damage ([18]; 250 g of ai/ha): 80%
% damage ([3]; 250 g of ai/ha): 95%
% damage ([17]; 250 g of ai/ha): 100%

Cc1cc(C)c(C2=C(O)C3(CCC(OCc4cccc(Cl)c4)CC3)NC2=O)c(C)c1C (single isomer, unassigned) [Ex. I-1-a-22]
Effect in % after 14d [5]: 98%
Kill rate in % after 7d [4]: 100%

Cc1cc(Cl)cc(C)c1C1=C(O)C2(CCC(OCC3CCCO3)CC2)NC1=O (single isomer, unassigned) [Ex. I-1-a-10]
Kill rate in % after 7d [4]: 100%
% damage [19]: 70%
% damage [7]: 90%
% damage [9]: 95%
% damage [10]: 80%
% damage [11]: 0%

C=CCOC1CCC2(CC1)NC(=O)C(c1c(C)cc(Cl)cc1C)=C2O (single isomer, unassigned) [Ex. I-1-a-11]
Kill rate in % after 7d ([2]; 500 ppm): 100%
Kill rate in % after 7d [20]: 95%
% damage [21]: 100%
% damage ([22]; 2000 g of ai/ha): 90%

CCOC(=O)OC1=C(c2c(C)cc(C)cc2C)C(=O)NC12CCC(OCc1ccccc1)CC2 (single isomer, unassigned) [Ex. I-1-c-3]
% damage ([18]; 125 g of ai/ha): 90%
% damage [23]: 70%
% damage ([17]; 125 g of ai/ha): 100%
% damage ([22]; 125 g of ai/ha): 90%

C=CCOC1CCC2(CC1)NC(=O)C(c1c(C)cc(Cl)cc1Cl)=C2O (single isomer, unassigned) [Ex. I-1-a-13]
% damage ([18]; 2000 g of ai/ha): 95% and 90%

Cc1cc(C)c(C2=C(O)C3(CCC(OCC4CCCO4)CC3)NC2=O)cc1C (single isomer, unassigned) [Ex. I-1-a-8]
Kill rate in % after 7d ([2]; 1000 ppm): 100%

Cc1ccc(C)c(C2=C(OC(=O)C(C)C)C3(CCC(OCc4ccccc4)CC3)NC2=O)c1 (stereo not drawn) [Ex. I-1-b-1]
Kill rate in % after 7d [24]: 100%

O=C1NC2(CCC(OCc3ccc(Cl)cc3)CC2)C(O)=C1c1cc(-c2ccc(Cl)cc2)ccc1Cl (single isomer, unassigned) [Ex. I-1-a-31]
Effect in % after 14d [5]: 95%
Kill rate in % after 7d ([2]; 500 ppm): 100%
Kill rate in % after 7d [20]: 99%

Cc1ccc(C)c(C2=C(O)C3(CCC(OCc4cccc(Cl)c4)CC3)NC2=O)c1 (single isomer, unassigned) [Ex. I-1-a-25]
Kill rate in % after 7d [4]: 100%

Cc1ccc(-c2ccc(Cl)cc2)cc1C1=C(O)C2(CCC(OCc3ccc(Cl)cc3)CC2)NC1=O (single isomer, unassigned) [Ex. I-1-a-30]
Kill rate in % after 6d ([1]; 500 ppm): 100%
Kill rate in % after 7d [20]: 99%
% efficacy [25]: 100%

C=CCOC1CCC2(CC1)NC(=O)C(c1c(C)cc(Cl)cc1C)=C2OC(=O)OCC (single isomer, unassigned) [Ex. I-1-c-2]
Effect in % after 14d [5]: 100%
Kill rate in % after 6d ([1]; 500 ppm): 95%

COCCOC1CCC2(CC1)NC(=O)C(c1c(C)cc(C)c(C)c1C)=C2O (single isomer, unassigned) [Ex. I-1-a-3]
Kill rate in % after 7d [4]: 100%
Kill rate in % after 7d [20]: 98%

Cc1cc(C)c(C2=C(O)C3(CCC(OCc4ccccc4Cl)CC3)NC2=O)cc1C (single isomer, unassigned) [Ex. I-1-a-20]
Kill rate in % after 7d [4]: 100%

Cc1cc(C)c(C2=C(O)C3(CCC(OCCOC(C)C)CC3)NC2=O)c(C)c1C (single isomer, unassigned) [Ex. I-1-a-2]
Kill rate in % after 6d ([1]; 1000 ppm): 100%
Kill rate in % after 7d [4]: 100%
Kill rate in % after 7d [20]: 95%
